Test results taken from patent US8410117B2, “Imidazopyrimidine derivatives” (Hoffmann-La Roche Inc., priority 2010, dated 2013).

target: T1, human PDE10A (Homo sapiens, UniProt Q9Y233); assay: human PDE10A full length Scintillation Proximity Assay (SPA); assay type: biochemical; conditions: 50 nM cGMP and 50 nM [3H]-cGMP, 20 minutes at room temperature; read-out: PDE10A inhibition IC50
T1 construct: The human PDE10A full length assay; purchased Enzo Life Science, Lausen, Switzerland SE-534
Protocol: The following test was carried out in order to determine the activity of the compounds of the present invention. PDE10 activity of the compounds of the present invention was determined using a Scintillation Proximity Assay (SPA)-based method similar to the one previously described (Fawcett, L. et al., Proc Natl Acad Sci USA (2000) 97(7):3702-3707).
The human PDE10A full length assay was performed in 96-well micro titer plates. The reaction mixture of 50 μl contained 20 mM HEPES pH=7.5/10 mM MgCl2/0.05 mg/ml BSA (Sigma cat. #A-7906), 50 nM cGMP (Sigma, cat. #G6129) and 50 nM [^3H]-cGMP (GE Healthcare, cat. #TRK392 S.A. 13.2 Ci/mmol), 3.75 ng/well PDE10A enzyme (Enzo Life Science, Lausen, Switzerland cat #SE-534) with or without a specific test compound. A range of concentrations of the potential inhibitor was used to generate data for calculating the concentration of inhibitor resulting in 50% of the effect (e.g. IC50, the concentration of the competitor inhibiting PDE10A activity by 50%). Non-specific activity was tested without the enzyme. The reaction was initiated by the addition of the substrate solution (cGMP and [^3H]-cGMP) and allowed to progress for 20 minutes at room temperature. The reaction was terminated by adding 25 μl of YSi-SPA scintillation beads (GE Healthcare, cat. #RPNQ0150) in 18 mM zinc sulphate solution (stop reagent). After 1 h under shaking, the plate was centrifuged one minute at 170 g to allow beads to settle. Afterwards, radioactive counts were measured on a Perkin Elmer TopCount Scintillation plate reader.

T1 sequence (Q9Y233 1-779 isoform Q9Y233-1): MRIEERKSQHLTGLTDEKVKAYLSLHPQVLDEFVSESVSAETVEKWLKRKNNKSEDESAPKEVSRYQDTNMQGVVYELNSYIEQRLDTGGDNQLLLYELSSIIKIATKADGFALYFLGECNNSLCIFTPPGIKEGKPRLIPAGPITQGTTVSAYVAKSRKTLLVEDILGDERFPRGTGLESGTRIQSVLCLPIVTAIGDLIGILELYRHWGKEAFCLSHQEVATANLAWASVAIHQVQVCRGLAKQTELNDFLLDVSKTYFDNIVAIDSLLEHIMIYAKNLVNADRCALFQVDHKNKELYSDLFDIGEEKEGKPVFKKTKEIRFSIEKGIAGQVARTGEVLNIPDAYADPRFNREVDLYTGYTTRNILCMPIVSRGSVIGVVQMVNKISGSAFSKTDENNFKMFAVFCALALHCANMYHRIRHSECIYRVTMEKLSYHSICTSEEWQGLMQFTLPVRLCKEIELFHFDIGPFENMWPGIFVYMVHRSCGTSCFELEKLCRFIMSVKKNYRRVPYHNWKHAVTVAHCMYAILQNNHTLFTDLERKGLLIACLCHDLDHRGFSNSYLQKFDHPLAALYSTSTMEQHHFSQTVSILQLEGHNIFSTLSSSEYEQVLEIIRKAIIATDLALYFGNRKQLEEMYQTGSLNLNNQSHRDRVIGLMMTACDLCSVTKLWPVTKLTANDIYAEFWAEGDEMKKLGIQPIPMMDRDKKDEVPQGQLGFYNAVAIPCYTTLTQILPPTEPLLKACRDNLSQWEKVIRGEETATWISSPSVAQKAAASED

| IC50 [nM] | SMILES |
| --- | --- |
| 28.3 | Cc1ccc(C)c(C(=O)Nc2ccn3cc(-c4ccccc4)nc3n2)n1 [Example 17, 3,6-Dimethyl-pyridine-2-carboxylic acid (2-phenyl-imidazo[1,2-a]pyrimidin-7-yl)-amide] |
| 147 | O=C(Nc1ccn2cc(-c3ccccc3)nc2n1)c1noc2c1CCCC2 [Example 18, 4,5,6,7-Tetrahydro-benzo[d] isoxazole-3-carboxylic acid (2-phenyl-imidazo[1,2-a]pyrimidin-7-yl)-amide] |
| 553 | O=C(Nc1ccn2cc(-c3ccccc3)nc2n1)c1ccnc(Cl)c1 [Example 19, 2-Chloro-N-(2-phenyl-imidazo[1,2-a]pyrimidin-7-yl)-isonicotinamide] |
| 643 | Cn1ncc(-c2ccno2)c1C(=O)Nc1ccn2cc(-c3ccccc3)nc2n1 [Example 20, 4-Isoxazol-5-yl-2-methyl-2H-pyrazole-3-carboxylic acid (2-phenyl-imidazo[1,2-a]pyrimidin-7-yl)-amide] |
| 314 | O=C(Nc1ccn2cc(-c3ccccc3)nc2n1)c1cccc(Cl)n1 [Example 21, 6-Chloro-pyridine-2-carboxylic acid (2-phenyl-imidazo[1,2-a]pyrimidin-7-yl)-amide] |
| 42 | COc1cccc(C(=O)Nc2ccn3cc(-c4ccccc4)nc3n2)n1 [Example 22, 6-Methoxy-pyridine-2-carboxylic acid (2-phenyl-imidazo[1,2-a]pyrimidin-7-yl)-amide] |
| 64.3 | Cc1cc(Br)cnc1C(=O)Nc1ccn2cc(-c3ccccc3)nc2n1 [Example 23, 5-Bromo-3-methyl-pyridine-2-carboxylic acid (2-phenyl-imidazo[1,2-a]pyrimidin-7-yl)-amide] |
| 321 | Cc1cc(Br)c(C)c(C(=O)Nc2ccn3cc(-c4ccccc4)nc3n2)n1 [Example 24, 4-Bromo-3,6-dimethyl-pyridine-2-carboxylic acid (2-phenyl-imidazo[1,2-a]pyrimidin-7-yl)-amide] |
| 324 | Cc1cccc(C(=O)Nc2ccn3cc(-c4ccccc4)nc3n2)n1 [Example 25, 6-Methyl-pyridine-2-carboxylic acid (2-phenyl-imidazo[1,2-a]pyrimidin-7-yl)-amide] |
| 24 | COC(=O)c1[nH]nnc1C(=O)Nc1ccn2cc(-c3ccccc3)nc2n1 [Example 26, 5-(2-Phenyl-imidazo[1,2-a]pyrimidin-7-ylcarbamoyl)-3H-[1,2,3]triazole-4-carboxylic acid methyl ester] |
| 163 | O=C(Nc1ccn2cc(-c3ccccc3)nc2n1)c1nn[nH]c1C(=O)N1CCC1 [Example 27, 5-(Azetidine-1-carbonyl)-1H-[1,2,3]triazole-4-carboxylic acid (2-phenyl-imidazo[1,2-a]pyrimidin-7-yl)-amide] |
| 251 | CCN(C)C(=O)c1[nH]nnc1C(=O)Nc1ccn2cc(-c3ccccc3)nc2n1 [Example 28, 1H-[1,2,3]Triazole-4,5-dicarboxylic acid 5-(ethyl-methyl-amide) 4-[(2-phenyl-imidazo[1,2-a]pyrimidin-7-yl)-amide]] |
| 3.3 | Cn1ncc(C(=O)N2CCC2)c1C(=O)Nc1ccn2cc(-c3ccccc3)nc2n1 [Example 29, 4-(Azetidine-1-carbonyl)-2-methyl-2H-pyrazole-3-carboxylic acid (2-phenyl-imidazo[1,2-a]pyrimidin-7-yl)-amide] |
| 33.1 | Cn1ncc(C(=O)N2CCOCC2)c1C(=O)Nc1ccn2cc(-c3ccccc3)nc2n1 [Example 30, 2-Methyl-4-(morpholine-4-carbonyl)-2H-pyrazole-3-carboxylic acid (2-phenyl-imidazo[1,2-a]pyrimidin-7-yl)-amide] |
| 22.8 | CNC(=O)c1cnn(C)c1C(=O)Nc1ccn2cc(-c3cccc(Cl)c3)nc2n1 [Example 32, 2-Methyl-2H-pyrazole-3,4-dicarboxylic acid 3-{[2-(3-chloro-phenyl)-imidazo[1,2-a]pyrimidin-7-yl]-amide}4-methylamide] |
| 35 | Cn1ncc(C(=O)N2CC(F)(F)C2)c1C(=O)Nc1ccn2cc(-c3ccccc3)nc2n1 [Example 34, 4-(3,3-Difluoro-azetidine-1-carbonyl)-2-methyl-2H-pyrazole-3-carboxylic acid (2-phenyl-imidazo[1,2-a]pyrimidin-7-yl)-amide] |
| 32 | Cn1ncc(C(=O)N2CC(O)C2)c1C(=O)Nc1ccn2cc(-c3ccccc3)nc2n1 [Example 36, 4-(3-Hydroxy-azetidine-1-carbonyl)-2-methyl-2H-pyrazole-3-carboxylic acid (2-phenyl-imidazo[1,2-a]pyrimidin-7-yl)-amide] |
| 22.9 | Cn1ncc(C(=O)NCCCO)c1C(=O)Nc1ccn2cc(-c3ccccc3)nc2n1 [Example 38] |
| 86.4 | COCCCNC(=O)c1cnn(C)c1C(=O)Nc1ccn2cc(-c3ccccc3)nc2n1 [Example 39, 2-Methyl-2H-pyrazole-3,4-dicarboxylic acid 4-[(3-methoxy-propyl)-amide]3-[(2-phenyl-imidazo[1,2-a]pyrimidin-7-yl)-amide]] |

Continued, compound first:

| SMILES | IC50 [nM] |
| --- | --- |
| O=C(Nc1ccn2cc(-c3ccccc3)nc2n1)c1ccno1 [Example 2, Isoxazole-5-carboxylic acid (2-phenyl-imidazo[1,2-a]pyrimidin-7-yl)-amide] | 951 |
| Cc1nn(C)c(C(=O)Nc2ccn3cc(-c4ccccc4)nc3n2)c1Cl [Example 3, 4-Chloro-2,5-dimethyl-2H-pyrazole-3-carboxylic acid (2-phenyl-imidazo[1,2-a]pyrimidin-7-yl)-amide] | 97 |
| O=C(Nc1ccn2cc(-c3ccccc3)nc2n1)c1ccnn1-c1ccccc1 [Example 4, 2-Phenyl-2H-pyrazole-3-carboxylic acid (2-phenyl-imidazo[1,2-a]pyrimidin-7-yl)-amide] | 671 |
| Cc1nn(C)c(C(=O)Nc2ccn3cc(-c4ccccc4)nc3n2)c1Br [Example 5, 4-Bromo-2,5-dimethyl-2H-pyrazole-3-carboxylic acid (2-phenyl-imidazo[1,2-a]pyrimidin-7-yl)-amide] | 26.8 |
| Cn1ncc(Br)c1C(=O)Nc1ccn2cc(-c3ccccc3)nc2n1 [Example 6, 4-Bromo-2-methyl-2H-pyrazole-3-carboxylic acid (2-phenyl-imidazo[1,2-a]pyrimidin-7-yl)-amide] | 384 |
| CCn1ncc(Cl)c1C(=O)Nc1ccn2cc(-c3ccccc3)nc2n1 [Example 7, 4-Chloro-2-ethyl-2H-pyrazole-3-carboxylic acid (2-phenyl-imidazo[1,2-a]pyrimidin-7-yl)-amide] | 140 |
| CCCn1ncc(Cl)c1C(=O)Nc1ccn2cc(-c3ccccc3)nc2n1 [Example 8, 4-Chloro-2-propyl-2H-pyrazole-3-carboxylic acid (2-phenyl-imidazo[1,2-a]pyrimidin-7-yl)-amide] | 64.7 |
| CCCCn1ncc(Cl)c1C(=O)Nc1ccn2cc(-c3ccccc3)nc2n1 [Example 9, 2-Butyl-4-chloro-2H-pyrazole-3-carboxylic acid (2-phenyl-imidazo[1,2-a]pyrimidin-7-yl)-amide] | 44.6 |
| CC(C)n1ncc(Cl)c1C(=O)Nc1ccn2cc(-c3ccccc3)nc2n1 [Example 10, 4-Chloro-2-isopropyl-2H-pyrazole-3-carboxylic acid (2-phenyl-imidazo[1,2-a]pyrimidin-7-yl)-amide] | 105 |
| CCC(C)n1ncc(Cl)c1C(=O)Nc1ccn2cc(-c3ccccc3)nc2n1 (stereo not shown) [Example 11, 2-sec-Butyl-4-chloro-2H-pyrazole-3-carboxylic acid (2-phenyl-imidazo[1,2-a]pyrimidin-7-yl)-amide] | 105 |
| CC(C)Cn1ncc(Cl)c1C(=O)Nc1ccn2cc(-c3ccccc3)nc2n1 [Example 12, 4-Chloro-2-isobutyl-2H-pyrazole-3-carboxylic acid (2-phenyl-imidazo[1,2-a]pyrimidin-7-yl)-amide] | 18.8 |
| CC(C)Cn1nc([N+](=O)[O-])cc1C(=O)Nc1ccn2cc(-c3ccccc3)nc2n1 [Example 13, 2-Isobutyl-5-nitro-2H-pyrazole-3-carboxylic acid (2-phenyl-imidazo[1,2-a]pyrimidin-7-yl)-amide] | 47.9 |
| O=C(Nc1ccn2cc(-c3ccccc3)nc2n1)c1cc([N+](=O)[O-])nn1C1CCCC1 [Example 14, 2-Cyclopentyl-5-nitro-2H-pyrazole-3-carboxylic acid (2-phenyl-imidazo[1,2-a]pyrimidin-7-yl)-amide] | 125 |
| CCn1nc([N+](=O)[O-])cc1C(=O)Nc1ccn2cc(-c3ccccc3)nc2n1 [Example 15, 2-Ethyl-5-nitro-2H-pyrazole-3-carboxylic acid (2-phenyl-imidazo[1,2-a]pyrimidin-7-yl)-amide] | 748 |
| CC(C)n1nc([N+](=O)[O-])cc1C(=O)Nc1ccn2cc(-c3ccccc3)nc2n1 [Example 16, 2-Isopropyl-5-nitro-2H-pyrazole-3-carboxylic acid (2-phenyl-imidazo[1,2-a]pyrimidin-7-yl)-amide] | 82.1 |
